According to patent US9701707B2, “Methods of synthesizing substituted purine compounds” (Epizyme, Inc., priority 2013, dated 2017):

Key:
Format in all cases: physicochemical
[1] = Equilibrium solubility in aqueous media; conditions: for Solubility: LOD 0.1 μg/ml
Experimental: Approximately 10 mg of Form B was weighed into a 1-ml glass vial followed by addition of 0.5 ml relevant media. Each sample was continuously stirred using a magnetic stir bar at 25° C. for 24 h. The suspension was then filtered using a nylon membrane with a pore diameter of 0.22 μm. The filtrates were diluted for HPLC analysis and final pH was measured. The solid residue of each sample was collected for XRPD analysis.
The solubilities of Form B in water and five different pH values at 25° C. were determined by HPLC after 24 h equilibration. Solubility data for Form B was obtained across the physiological pH by using buffer solutions from pH 2 to pH 10.
Preparation of pH Buffers • pH 2: 0.01N HCl solution. Dilute 1 ml of 1 N HCl with H2O up to a total volume of 100 ml. Measure the pH and precisely adjust to pH=2.00 using a few microliters of 1N HCl or 1N NaOH. • pH 4: 50 mM Na citrate buffer. Prepare a 50 mM citric acid solution by diluting 10 ml of 1N citric acid with H2O up to a total volume of 200 ml. Slowly add solid NaOH under stirring to increase the pH to 3.8-4.0 and use a few microliters of 1N NaOH for final adjustment to pH 4.00. • pH 6: 50 mM Na citrate buffer. Use the same procedure as the pH 4 buffer and adjust to pH=6.00 • pH 8: 50 mM Na phosphate buffer. Prepare a 50 mM NaH2PO4 solution by dissolving 6.00 g NaH2PO4 in 1 L of H2O and a 50 mM Na2HPO4 solution by dissolving 7.10 g in 1 L of H2O. Mix 10 ml of the NaH2PO4 solution with 140 ml of the Na2HPO4 solution in a beaker. Adjust to pH 8.00 by addition of small amounts of 50 mM NaH2PO4 or Na2HPO4 solution. • pH 10: 50 mM Na carbonate buffer. Prepare a 50 mM carbonate solution by dissolving 840 mg of sodium bicarbonate (NaHCO3) in about 180 ml of H2O. Slowly adjust the pH to 10.0±0.1 by addition of 1N NaOH. Add water to reach the total volume of 200 ml and adjust to pH 10.00 with 1N NaOH.

[2] = Solid-state stability (chemical and physical); conditions: 5° C. Closed Dish, 7 Days
Experimental: Chemical Stability: Accurately weighed ˜10 mg Form B was placed into four 10-ml volumetric flasks. The samples were stored at 5° C. closed dish, 25° C./57% RH open dish, 40° C./75% RH open dish, and 60° C. closed dish for 7 days. The sample stored at 5° C. was used as a control. Assay and total related substances for each sample were checked at the end of 7 days.
Physical Stability: Accurately weighed ˜15 mg of Form B was placed into 5-ml glass vials and the samples were stored at 5° C. closed dish, 25° C./57% RH open dish, 40° C./75% RH open dish, and 60° C. closed dish for 7 days. Samples were analyzed by XRPD and TGA (FIG. 24).

[3] = Solid-state photostability
Experimental: The solid-state photostability of EP-1 trihydrate (x is 3) was assessed upon exposure to UV/Vis light according to ICH guidelines. Loss of claim %, loss of area %, and degradates were evaluated versus dark control samples.
Solid-State Photostability: Weighed ˜5 mg Form B into glass vials with 2 vials covered with foil as the controls. Put these 2 samples with their controls into chamber and expose them to Vis (10 Kilo lux) for 120 hrs followed by UV (10 W/m^2) for 20 hrs (per ICH guidelines). At the end of Vis, take 1 sample and 1 control out for analysis and the others were taken out after both Vis and UV exposure.

Solution photostability = experiment: Solution photostability
Experimental: Solution Photostability: Weighed ˜1 mg of Form B and dissolved in 3 solutions at different pHs (0.01 N HCl, 0.01 N NaOH and water). Methanol was added as a co-solvent to dissolve Form B in solutions (i.e., 10% (v/v) methanol in 0.01 N HCl, 20% (v/v) in water and 30% (v/v) in 0.01 N NaOH), the final concentration was 0.1 mg/mL. For each solution, 1 sample and 1 control covered in foil were put into the photo chamber for Vis study (2 vials total for each solution). Measure the concentration and monitor the degradation.

[4] = Bulk control (covered with foil), Vis Stability (1.2 Mil lux-hours)
[5] = Bulk control (covered with foil), Vis-UV stability (1.2 Mil lux-hours + 200 Watt-hours/m^2)
[6] = Bulk, Vis Stability (1.2 Mil lux-hours)
[7] = Bulk, Vis-UV stability (1.2 Mil lux-hours + 200 Watt-hours/m^2)
[8] = 0.01N HCl Dark, Vis Stability (1.2 Mil lux-hours), final pH 2.1
[9] = 0.01N HCl Dark, Vis-UV Stability (1.2 Mil lux-hours + 200 Watt-hours/m^2), final pH 2.1
[10] = 0.01N HCl Light, Vis Stability (1.2 Mil lux-hours), final pH 2.1
[11] = 0.01N HCl Light, Vis-UV Stability (1.2 Mil lux-hours + 200 Watt-hours/m^2), final pH 2.1
[12] = 0.01N NaOH Dark, Vis Stability (1.2 Mil lux-hours), final pH 11.6, precipitation observed
[13] = 0.01N NaOH Dark, Vis-UV Stability (1.2 Mil lux-hours + 200 Watt-hours/m^2), final pH 11.7, precipitation observed
[14] = 0.01N NaOH Light, Vis Stability (1.2 Mil lux-hours), final pH 11.7, precipitation observed
[15] = 0.01N NaOH Light, Vis-UV Stability (1.2 Mil lux-hours + 200 Watt-hours/m^2), final pH 11.7, precipitation observed
[16] = H2O Dark, Vis Stability (1.2 Mil lux-hours), final pH 7.7
[17] = H2O Dark, Vis-UV Stability (1.2 Mil lux-hours + 200 Watt-hours/m^2), final pH 8.1
[18] = H2O Light, Vis Stability (1.2 Mil lux-hours), final pH 7.3
[19] = H2O Light, Vis-UV Stability (1.2 Mil lux-hours + 200 Watt-hours/m^2), final pH 7.3

Question: What does the source list for `CC(C)N(C[C@H]1O[C@@H](n2cnc3c(N)ncnc32)[C@H](O)[C@@H]1O)[C@H]1C[C@@H](CCc2nc3cc(C(C)(C)C)ccc3[nH]2)C1` [Form B, (2R,3R,4S,5R)-2-(6-amino-9H-purin-9-yl)-5-((((1r,3S)-3-(2-(5-(tert-butyl)-1H-benzo[d]imidazol-2-yl)ethyl)cyclobutyl)(isopropyl)amino)methyl)tetrahydrofuran-3,4-diol trihydrate]?
Answer: Solubility ([1]; 50 mM Na carbonate buffer, pH (initial) 10.0, pH (final) 10.0, RT, 24 h): <LOD; Solubility ([1]; 50 mM Na phosphate buffer, pH (initial) 8.0, pH (final) 8.0, RT, 24 h): <LOD^§; solubility at 24 h ([1]; 50 mM sodium citrate buffer, 25 °C, pH 6, aqueous buffer, thermodynamic from solid, 50 mM sodium citrate, pH (initial) 6.0, pH (final) 6.0, RT): 80 µg/mL; Remaining Solid ([1]; Water, RT, 24 h, XRPD): Form B; Physical: XRPD [2]: Form B; Chemical: % Claim (Cs/Ci × 100%) ([2]; sample used as standard for the calculation): 100.0^& %; % area (100% − TRS%) [3, 4]: 99.7%; % claim (Cs/Ci × 100%) [3, 4]: 100.0%; % area (100% − TRS%) [3, 5]: 99.8%; % claim (Cs/Ci × 100%) [3, 5]: 100.0%; % area (100% − TRS%) [3, 6]: 99.8%; % claim (Cs/Ci × 100%) [3, 6]: 101.1%; % area (100% − TRS%) [3, 7]: 99.8%; % claim (Cs/Ci × 100%) [3, 7]: 99.6%; solid-state photostability ([3]; exposure to full ICH photostability requirement, versus dark control): stable; % area (100% − TRS%) (Solution photostability; [8]): 99.4%; % claim (Cs/Ci × 100%) (Solution photostability; [8]): 100.0%; % area (100% − TRS%) (Solution photostability; [9]): 99.9%; % claim (Cs/Ci × 100%) (Solution photostability; [9]): 100.0%; % area (100% − TRS%) (Solution photostability; [10]): 98.5%; % claim (Cs/Ci × 100%) (Solution photostability; [10]): 98.8%; % area (100% − TRS%) (Solution photostability; [11]): 99.9%; % claim (Cs/Ci × 100%) (Solution photostability; [11]): 99.9%; % area (100% − TRS%) (Solution photostability; [12]): 99.7%; % claim (Cs/Ci × 100%) (Solution photostability; [12]): 100.0%; % area (100% − TRS%) (Solution photostability; [13]): 100.0%; % claim (Cs/Ci × 100%) (Solution photostability; [13]): 100.0%; % area (100% − TRS%) (Solution photostability; [14]): 99.6%; % claim (Cs/Ci × 100%) (Solution photostability; [14]): 44.5%; % area (100% − TRS%) (Solution photostability; [15]): 99.3%; % claim (Cs/Ci × 100%) (Solution photostability; [15]): 66.3%; % area (100% − TRS%) (Solution photostability; [16]): 100.0%; % claim (Cs/Ci × 100%) (Solution photostability; [16]): 100.0%; % area (100% − TRS%) (Solution photostability; [17]): 100.0%; % claim (Cs/Ci × 100%) (Solution photostability; [17]): 100.0%; % area (100% − TRS%) (Solution photostability; [18]): 99.6%; % claim (Cs/Ci × 100%) (Solution photostability; [18]): 98.5%; % area (100% − TRS%) (Solution photostability; [19]): 99.3%; % claim (Cs/Ci × 100%) (Solution photostability; [19]): 94.7%; solution photostability (Solution photostability; in water and 0.01N HCl solution, exposure to UV/Vis): stable
